Assays:
[1] = design: method as in PMID 35448805; settings: pure compounds, compared to ascorbic acid; cited from earlier work
[2] = DPPH radical scavenging assay; settings: 30 min, absorbance 517 nm
Description: The free radical scavenging activity of lichen extracts was measured using 1,1-diphenyl-2-picryl-hydrazil (DPPH). The antioxidant activity via this method is described in several studies and here it is slightly modified. The extracts were dissolved in a small amount of pure DMSO and then filled with distilled water to a concentration of 1 mg/mL. In addition, 10 μL of 5% NaOH solution was added to help dissolve the extracts fully. Stock solutions were subsequently diluted to the desired concentrations. The reaction mixture consisted of 2 mL of DPPH methanolic solution (0.1 mM) and 1 mL of our extracts to reach a final volume of 3 mL. The samples were incubated at laboratory temperature in the dark for 30 min. After the incubation, the absorbance of the samples was measured at 517 nm in a spectrophotometer (multi-detection microplate reader; Synergy HT, BioTek, Winooski, VT, USA). Ascorbic acid was used as positive control. A solution of 5% DMSO (1 mL) in MeOH (2 mL) was used as a blank control. The DPPH radical concentration was calculated by the equation:Free radical scavenging activity (%) = [(A0 − A1)/A)] × 100(2) where A0 was the absorbance of negative control and A1 was the absorbance of the reaction mixture of our samples.

[3] = system: A2780; experiment: Resazurin screening assay, 2D culture; format: cell-based, human; settings: A2780 (Ovarian), 72 h, secondary metabolites and cisplatin
Description: (§1) All experiments were performed in triplicate.

[4] = system: A549; experiment: Resazurin screening assay, 2D culture; format: cell-based, human; settings: A549 (Lung), 72 h, secondary metabolites and cisplatin
Description: as §1

[5] = system: BJ-5ta; experiment: Resazurin screening assay, 2D culture; format: cell-based, human; settings: BJ-5ta (Skin Fibroblasts), non-cancerous, 72 h, secondary metabolites and cisplatin
Description: as §1

[6] = system: BLM; experiment: Resazurin screening assay, 2D culture; format: cell-based, human; settings: BLM (Melanoma), 72 h, secondary metabolites and cisplatin
Description: as §1

[7] = system: HCT116; experiment: Resazurin screening assay, 2D culture; format: cell-based, human; settings: HCT116 (Colon), 72 h, secondary metabolites and cisplatin
Description: as §1

[8] = system: HeLa; experiment: Resazurin screening assay, 2D culture; format: cell-based, human; settings: HeLa (Cervix), 72 h, secondary metabolites and cisplatin
Description: as §1

[9] = system: MCF-10A; experiment: Resazurin screening assay, 2D culture; format: cell-based, human; settings: MCF-10A (Breast Epithelial), non-cancerous, 72 h, secondary metabolites and cisplatin
Description: as §1

[10] = system: MCF-7; experiment: Resazurin screening assay, 2D culture; format: cell-based, human; settings: MCF-7 (Breast ER+), 72 h, secondary metabolites and cisplatin
Description: as §1

[11] = system: MDA-MB-231; experiment: Resazurin screening assay, 2D culture; format: cell-based, human; settings: MDA-MB-231 (Breast ER−), 72 h, secondary metabolites and cisplatin
Description: as §1

[12] = system: Jurkat; experiment: Resazurin screening assay, 2D suspension culture; format: cell-based, human; settings: Jurkat (Leukemia), 72 h, secondary metabolites and cisplatin
Description: as §1

[13] = system: COS-7; experiment: Resazurin screening assay, 2D culture; format: cell-based; settings: COS-7 (Kidney Fibroblasts), non-cancerous, 72 h, secondary metabolites and cisplatin
Description: as §1

[14] = system: A2780; experiment: Resazurin screening assay, 3D spheroids; format: cell-based, human; settings: A2780 (Ovarian), 72 h, secondary metabolites and cisplatin
Description: as §1

[15] = system: A549; experiment: Resazurin screening assay, 3D spheroids; format: cell-based, human; settings: A549 (Lung), 72 h, secondary metabolites and cisplatin
Description: as §1

[16] = system: BJ-5ta; experiment: Resazurin screening assay, 3D spheroids; format: cell-based, human; settings: BJ-5ta (Skin Fibroblasts), non-cancerous, 72 h, secondary metabolites and cisplatin
Description: as §1

[17] = system: BLM; experiment: Resazurin screening assay, 3D spheroids; format: cell-based, human; settings: BLM (Melanoma), 72 h, secondary metabolites and cisplatin
Description: as §1

[18] = system: HCT116; experiment: Resazurin screening assay, 3D spheroids; format: cell-based, human; settings: HCT116 (Colon), 72 h, secondary metabolites and cisplatin
Description: as §1

[19] = system: HeLa; experiment: Resazurin screening assay, 3D spheroids; format: cell-based, human; settings: HeLa (Cervix), 72 h, secondary metabolites and cisplatin
Description: as §1

[20] = system: Jurkat; experiment: Resazurin screening assay, 3D spheroids; format: cell-based, human; settings: Jurkat (Leukemia), 72 h, secondary metabolites and cisplatin
Description: as §1

[21] = system: MCF-10A; experiment: Resazurin screening assay, 3D spheroids; format: cell-based, human; settings: MCF-10A (Breast Epithelial), non-cancerous, 72 h, secondary metabolites and cisplatin
Description: as §1

[22] = system: MCF-7; experiment: Resazurin screening assay, 3D spheroids; format: cell-based, human; settings: MCF-7 (Breast ER+), 72 h, secondary metabolites and cisplatin
Description: as §1

[23] = system: MDA-MB-231; experiment: Resazurin screening assay, 3D spheroids; format: cell-based, human; settings: MDA-MB-231 (Breast ER−), 72 h, secondary metabolites and cisplatin
Description: as §1

[24] = system: COS-7; experiment: Resazurin screening assay, 3D spheroids; format: cell-based; settings: COS-7 (Kidney Fibroblasts), non-cancerous, 72 h, secondary metabolites and cisplatin
Description: as §1

[25] = system: Staphyloccocus aureus CCM 4223; experiment: Agar well-diffusion method; format: cell-based; settings: pure compound 0.57 mM

COC(=O)c1c(C)cc(OC(=O)c2c(C)cc(O)c(C=O)c2O)c(C)c1O [A, atranorin]
free radical scavenging activity in DPPH assay (in words) [1]: None of the tested compounds showed notable free radical scavenging activity

O=C1O[C@H]([C@@H](O)CO)C(O)=C1O [Ascorbic acid]
IC50 by DPPH radical scavenging assay [2]: 7.7 ± 0.4 µg/mL

N.N.[Cl][Pt][Cl] [CisPt, cisplatin]
IC50 [3]: 9.3 µM | IC50 [4]: 23.5 µM | IC50 [5]: 37.9 µM | IC50 [6]: 29.5 µM | IC50 [7]: 7.4 µM | IC50 [8]: 35.4 µM | IC50 [9]: 25.9 µM | IC50 [10]: 29.7 µM | IC50 [11]: 7.1 µM | IC50 [12]: 6.3 µM | IC50 [13]: 24.6 µM | IC50 [14]: 134 µM | IC50 [15]: 119 µM | IC50 [16]: 186 µM | IC50 [17]: 89.9 µM | IC50 [18]: 98.4 µM | IC50 [19]: 78 µM | IC50 [20]: 6.7 µM | IC50 [21]: 121 µM | IC50 [22]: 78.3 µM | IC50 [23]: 75.4 µM | IC50 [24]: 154 µM

COc1cc(C)c(C(=O)Oc2cc(C)c(C(=O)O)c(O)c2)c(O)c1 [EA, evernic acid]
free radical scavenging activity in DPPH assay (in words) [1]: None of the tested compounds showed notable free radical scavenging activity

Cc1cc(OC(=O)c2c(C)cc(OC(=O)c3c(C)cc(O)cc3O)cc2O)cc(O)c1C(=O)O [GA, gyrophoric acid]
free radical scavenging activity in DPPH assay (in words) [1]: None of the tested compounds showed notable free radical scavenging activity

CCCCCC(=O)Cc1cc(O)cc2c1C(=O)Oc1cc(O)c(C(=O)O)c(CCCCC)c1O2 [Phy, physodic acid]
effectiveness among the chosen secondary metabolites (in words) [25]: most effective | % RIZD S. aureus ([25]; relative inhibition zone diameter vs gentamicin 50 µg/mL): 118.78% | free radical scavenging activity in DPPH assay (in words) [1]: None of the tested compounds showed notable free radical scavenging activity

From publication PMC9919983, “Screening Evaluation of Antiproliferative, Antimicrobial and Antioxidant Activity of Lichen Extracts and Secondary Metabolites In Vitro” (Plants, 2023)
